Patent publication EP2832223A1, “HERBICIDAL COMPOSITION” (Ishihara Sangyo Kaisha, Ltd., priority 2012, dated 2013)

How the values were obtained:
Format in all cases: in vivo
[1] = system: common cocklebur (Xanthium strumarium L.); assay: Test Example 12: pot test, foliar treatment, visual growth inhibition; conditions: foliar treatment at 4.2 to 4.3-leaf stage, 28th day after treatment, read-out: Growth inhibition rate (%) of common cocklebur Measured value
Protocol: Upland field soil was put into a 1/1,000,000 ha pot, and seeds of common cocklebur (Xanthium strumarium L.) were sown. When the common cocklebur reached 4.2 to 4.3-leaf stage, predetermined amounts of ONEHOPE NYUZAI (tradename), Click (tradename) and water dispersible granules containing flufenacet as an active ingredient (tradename: Cadou, manufactured by Bayer CropScience) were diluted with water (in an amount corresponding to 1,000 L/ha) and applied for foliar treatment by a small sprayer.
(§1) On the 28th day after treatment, the state of growth of the common cocklebur was visually observed to determine the growth inhibition rate (%). The growth inhibition rate (%) (measured value) and the growth inhibition rate (%) calculated in the same manner as in the above Test Example 1 are shown in Table 12.

[2] = system: Japanese millet (Echinochloa utilis Ohwi et Yabuno); assay: Test Example 13: pot test, soil and foliar treatment, visual growth inhibition; conditions: soil treatment and foliar treatment, 28th day after treatment, read-out: Growth inhibition rate (%) of Japanese millet Measured value
Protocol: Upland field soil was put into a 1/1,000,000 ha pot, and seeds of Japanese millet (Echinochloa utilis Ohwi et Yabuno) were sown. When the Japanese millet reached 3.8 to 4.0-leaf stage, seeds of Japanese millet were further sown in the same pot. On the next day, predetermined amounts of ONEHOPE NYUZAI (tradename), Click (tradename) and a wettable powder containing bicyclopyrone prepared in accordance with a conventional formulation method were diluted with water (in an amount corresponding to 1,000 L/ha) and applied for soil treatment and for foliar treatment by a small sprayer.
as §1, with “Japanese millet” for “common cocklebur”, “13.” for “12.”

[3] = system: guinea grass (Panicum maximum Jacq.); assay: Test Example 17: pot test, soil and foliar treatment, visual growth inhibition; conditions: Megathyrsus maximus, 29th day after treatment, read-out: Growth inhibition rate (%) of guinea grass Measured value
Protocol: Upland field soil was put into a 1/1,000,000 ha pot, and seeds of guinea grass (Panicum maximum Jacq.) were sown. When the guinea grass reached 5.2 to 6.0-leaf stage, seeds of guinea grass were further sown in the same pot assuming conditions such that weeds would later grow. Three days later, predetermined amounts of ONEHOPE NYUZAI (tradename), Click (tradename) and Spectrum (tradename) were diluted with water in an amount corresponding to 300 L/ha and applied for soil treatment and for foliar treatment by a small sprayer.
as §1, with “29th” for “28th”, “guinea grass” for “common cocklebur”, “17.” for “12.”

[4] = system: korean lespedeza (Kummerowia stipulacea (Maxim.) Makino); assay: Test Example 6: pot test, soil treatment, visual growth inhibition; conditions: soil treatment, 14th day after treatment, read-out: Growth inhibition rate (%) of korean lespedeza Measured value
Protocol: Upland field soil was put into a 1/300,000 ha pot, and seeds of korean lespedeza (Kummerowia stipulacea (Maxim.) Makino) were sown. On the next day, predetermined amounts of ONEHOPE NYUZAI (tradename), Click (tradename), Mikado (tradename) and a wettable powder containing bicyclopyrone prepared in accordance with a conventional formulation method were diluted with water (in an amount corresponding to 1,000 L/ha) and applied for soil treatment by a small sprayer.
as §1, with “14th” for “28th”, “korean lespedeza” for “common cocklebur”, “6.” for “12.”

[5] = system: green foxtail (Setaria viridis (L.) P.Beauv.); assay: Test Example 3: pot test, soil treatment, visual growth inhibition; conditions: soil treatment, 27th day after treatment, read-out: Growth inhibition rate (%) of green foxtail Measured value
Protocol: Upland field soil was put into a 1/1,000,000 ha pot, and seeds of green foxtail (Setaria viridis (L.) P.Beauv.) were sown. On the next day, predetermined amounts of ONEHOPE NYUZAI (tradename), Click (tradename) and SC formulation containing sulcotrione as an active ingredient (tradename: Mikado, manufactured by Bayer CropScience) were diluted with water (in an amount corresponding to 1,000 L/ha) and applied for soil treatment by a small sprayer.
as §1, with “27th” for “28th”, “green foxtail” for “common cocklebur”, “3.” for “12.”

[6] = system: velvetleaf (Abutilon theophrasti Medic.); assay: Test Example 14: pot test, soil and foliar treatment, visual growth inhibition; conditions: soil treatment and foliar treatment, 31st day after treatment, read-out: Growth inhibition rate (%) of velvetleaf Measured value
Source text: Upland field soil was put into a 1/1,000,000 ha pot, and seeds of velvetleaf (Abutilon theophrasti Medic.) were sown. When the velvetleaf reached 4.0 to 4.3-leaf stage, seeds of velvetleaf were further sown in the same pot assuming conditions such that weeds would later grow. On the next day, predetermined amounts of ONEHOPE NYUZAI (tradename), Click (tradename), Callisto (tradename), Mikado (tradename), a wettable powder containing bicyclopyrone as an active ingredient and Clio (tradename) were diluted with water in an amount corresponding to 300 L/ha and applied for soil treatment and for foliar treatment by a small sprayer.
as §1, with “31 st” for “28th”, “velvetleaf” for “common cocklebur”, “14.” for “12.”

[7] = system: prickly sida (Sida spinosa L.); assay: Test Example 10: pot test, soil treatment, visual growth inhibition; conditions: soil treatment, 28th day after treatment, read-out: Growth inhibition rate (%) of prickly sida Measured value
Protocol: Upland field soil was put into a 1/300,000 ha pot, and seeds of prickly sida (Sida spinosa L.) were sown. On the next day, predetermined amounts of ONEHOPE NYUZAI (tradename), Click (tradename), Spectrum (tradename), Callisto (tradename) and Clio (tradename) were diluted with water (in an amount corresponding to 1,000 L/ha) and applied for soil treatment by a small sprayer.
as §1, with “prickly sida” for “common cocklebur”, “10.” for “12.”

CCNc1nc(Cl)nc(NC(C)(C)C)n1 [Terbuthylazine, N^2-tert-butyl-6-chloro-N^4-ethyl-1,3,5-triazine-2,4-diamine]
inhibition at 250 g/ha ([1]; 250 g/ha): 30%
inhibition at 250 g/ha ([2]; 250 g/ha): 0%
inhibition at 500 g/ha ([3]; 500 g/ha): 0%
inhibition at 200 g/ha ([4]; 200 g/ha): 10%
inhibition at 2000 g/ha ([4]; 2000 g/ha): 25%
inhibition at 500 g/ha ([5]; 500 g/ha): 18%
inhibition at 400 g/ha ([6]; 400 g/ha): 0%
inhibition at 1200 g/ha ([6]; 1200 g/ha): 0%
inhibition at 200 g/ha ([7]; 200 g/ha): 30%
inhibition at 2000 g/ha ([7]; 2000 g/ha): 80%

COc1cc(OC)nc(NC(=O)NS(=O)(=O)c2ncccc2C(=O)N(C)C)n1 [Nicosulfuron, 2-(4,6-dimethoxypyrimidin-2-ylcarbamoylsulfamoyl)-N,N-dimethylnicotinamide]
inhibition at 15 g/ha ([1]; 15 g/ha): 80%
inhibition at 15 g/ha ([2]; 15 g/ha): 55%
inhibition at 30 g/ha ([3]; 30 g/ha): 38%
inhibition at 10 g/ha ([4]; 10 g/ha): 0%
inhibition at 100 g/ha ([4]; 100 g/ha): 0%
inhibition at 30 g/ha ([5]; 30 g/ha): 60%
inhibition at 20 g/ha ([6]; 20 g/ha): 3%
inhibition at 60 g/ha ([6]; 60 g/ha): 11%
inhibition at 10 g/ha ([7]; 10 g/ha): 20%
inhibition at 100 g/ha ([7]; 100 g/ha): 40%
